Results: a compilation of properties of binary mixtures (doi:10.1016/j.molliq.2012.02.014)

Assay: xn = mol fraction of the nth substance listed
Details: 101 kPa

CN(CCO)CCO + CCCCCC[n+]1ccn(C)c1.O=S(=O)([N-]S(=O)(=O)C(F)(F)F)C(F)(F)F
x1 = 1
Details | viscosity [mPa·s]
308.15 K | 46.2
323.15 K | 24.7

CCCCCC[n+]1ccn(C)c1.O=S(=O)([N-]S(=O)(=O)C(F)(F)F)C(F)(F)F + CN(CCO)CCO
viscosity [mPa·s]
Details | x2 = 0 | x2 = 0.0989 | x2 = 0.1899 | x2 = 0.2977 | x2 = 0.3999 | x2 = 0.4988 | x2 = 0.6075 | x2 = 0.7049 | x2 = 0.801 | x2 = 0.899
303.15 K | – | 52.4 | 46.6 | 40.8 | 37 | 35.1 | 39 | 44.3 | – | 55.1
308.15 K | 50.4 | – | 42.1 | 38 | – | 31.3 | 33.7 | 37.4 | 40.8 | 43.7
313.15 K | 41.4 | 39.2 | 36.7 | 34 | – | 29.8 | – | 31.8 | 34.3 | –
318.15 K | 35 | 33.1 | 30.8 | 27.9 | 25.4 | 23.9 | 23.8 | – | 27.3 | 28.9
323.15 K | 28.8 | 27.7 | 26 | – | 22.8 | 22.1 | 22.4 | – | 23.7 | 24.4
